The values below come from article PMC12190736, “Development and In Vitro Characterization of [^3H]GMC-058 as Radioligand for Imaging Parkinsonian-Related Proteinopathies” (Cells, 2025).

Like-named read-outs stand apart in the source and are kept apart here.

One test has as its target Aβ fibrils (Homo sapiens, UniProt P05067). Put plainly: [^3H]PiB binding displacement on AD brain homogenates. Conditions: AD brain homogenate, 1 nM [^3H]PiB. As to the method: (§1) Compounds’ affinity for tau and Aβ fibrils was measured by means of radioligand binding displacement experiments on AD brain homogenates, using [^3H]NFT-355 [8] (AbbVie, North Chicago, IL, USA) and [^3H]Pittsburg Compound-B (PiB; Novandi Chemistry AB, Södertälje, Sweden) to label tau and Aβ aggregates, respectively. Flash-frozen tissue from the frontal cerebral cortex of an AD (Braak stage V) brain was purchased from Analytical Biological Services Inc. (ABS; Wilmington, DE, USA), homogenized in DPBS, divided into aliquots (10 mg/mL), and stored at −80 °C until the day of the experiment.
(§2) On the day of the experiment, the brain homogenate was brought to RT, diluted in DPBS plus 0.1% BSA and incubated for 90 min, at RT, with 0.5 nM [^3H]NFT-355 or 1 nM [^3H]PiB, in the absence or presence of different concentrations of non-radiolabeled compounds. Bound radioligand was separated from free radioligand via rapid filtration and washings with cold DPBS, using a Unifilter-96 GF/B filter plate (presoaked in 0.3% PEI) and a Unifilter Cell Harvester (PerkinElmer). Plates were air-dried, and the scintillation liquid (Betaplate Scint, PerkinElmer) was added and counted using a MicroBeta2 2450. NSB was defined as the binding in the presence of 10 µM T808 [10] (AbbVie Germany) and 10 µM PiB for [^3H]NFT-355 and [^3H]PiB, respectively. Data fitting was performed using the software platform from Dotmatics (Boston, MA, USA).

The next test concerns the target tau fibrils (Homo sapiens, UniProt P10636). The test can be described thus: [^3H]NFT-355 binding displacement on AD brain homogenates. Conditions: AD brain homogenate, 0.5 nM [^3H]NFT-355. As to the method: as §1, §2
Test [1] has as its target recombinant α-syn fibrils (Homo sapiens, UniProt P37840). The test can be described thus: Radioligand binding displacement of [^3H]-α-syn-tool on α-syn fibrils. The note with it: 5 nM [^3H]-α-syn-tool. As to the method: Compound affinity for α-syn fibrils was measured by means of radioligand binding displacement experiments of an AbbVie tool radioligand with high affinity for α-syn fibrils ([^3H]-α-syn-tool). The aggregation of α-syn monomers into fibrils was obtained as described by Bousset et al.. In brief, monomers (5 mg/mL, prepared in AbbVie (Worcester, MA, USA) were incubated in 150 mM of KCl and 50 mM of Tris-HCl (pH 7.5) for 7 days at 37 °C, under constant shaking conditions (650 rpm, Eppendorf Thermomixer C, Eppendorf, Hamburg, Germany). After incubation, the fibrils were harvested via ultra-centrifugation (40,100× g, 30 min, 20 °C), resuspended in buffer, sonicated (40% amplitude, 10 s pulse on, 5 s pulse off) for 4.5 min at 20 °C, divided into aliquots (5.5 mg/mL), and stored at −80 °C until the day of the experiment. The characterization of the fibrils included protein content determination (BCA method) and an analysis of Proteinase K degradation pattern.
On the day of the experiment, α-syn fibrils were thawed for a few minutes at 37 °C, diluted in Dulbecco’s Phosphate Buffered Saline (PBS) without calcium and magnesium, pH = 7.4 (DPBS) plus 0.1% bovine serum albumin (BSA), and incubated (at the final fibrils concentration of 2.5 µg/mL) for 60 min, at room temperature (RT), with 5 nM [^3H]-α-syn-tool, in the absence or presence of different concentrations of non-radiolabeled compounds. Bound radioligand was separated from free radioligand via rapid filtration and washings with cold DPBS, using a Unifilter-96 GF/B filter plate (PerkinElmer, Rodgau, Germany) presoaked in 0.3% polyethylenimmine (PEI) and a Unifilter Cell Harvester (PerkinElmer, Rodgau, Germany). Plates were air-dried, and the scintillation liquid (Betaplate Scint, PerkinElmer) was added and counted using a MicroBeta2 2450 (Perkinelmer, Rodgau, Germany). Non-specific binding (NSB) was defined as the binding in the presence of 10 µM unlabeled α-syn tool. Data fitting and the constant of inhibition (Ki) calculation was performed using the software platform from Dotmatics (Boston, MA, USA).

Test [2] relates to fresh-frozen human brain sections. The test can be described thus: Autoradiography on fresh-frozen brain tissue sections. The test is classed as binding. Conditions: for NSB: 5 µM GMC044; for NSB / Total Minus NSB / Total binding: gray matter of cingulate cortex, control C03; for Binding displaced by GMC-044: 5 µM GMC-044, control cingulate cortex tissue; for Binding in control tissue: cingulate cortex of healthy controls. How it is done:
Selections of frozen human sections (described in Table 2 and Table 3) were used for binding autoradiography. Sections were first pre-incubated for 20 min in binding buffer [50 mM Tris-HCl (pH 7.4), 120 mM NaCl, 5 mM KCl, 2 mM CaCl2, 1 mM MgCl2, and 0.1% BSA] and then incubated with [^3H]GMC-058 (specific activity 22 Ci/mmol); [^3H]GMC-073 (specific activity 23.4 Ci/mmol); or […] in binding buffer for 180 min at RT. In the pilot autoradiography experiment (Figure A1). [^3H]GMC-058 was tested at 25 and 50 nM, while [^3H]GMC-073 and [^3H]GMC-098 were each tested at 10 and 20 nM. For all other autoradiography in fresh-frozen tissue sections, 25 nM [^3H]GMC-058 was used. To determine NSB, adjacent brain sections were incubated with [^3H]-tracer mixed with 5 μM of unlabeled GMC-044. The binding reaction was stopped with two 10 min washes in washing buffer [50 mM Tris-HCl (pH 7.4) at 4 °C] and a brief dip in cold distilled water. Slides were allowed to air-dry before being placed under storage phosphor screens (Fujifilm Plate BAS-TR2025, Fujifilm, Tokyo, Japan) in imaging cassettes for 90 h together with ART0123C and ART0123B tritium standards on glass slides (American Radiolabeled Chemicals Inc., St. Louis, MO, USA). Storage phosphor screens were scanned using an Amersham Typhoon FLA-9500 phosphor imaging scanner (Cytiva, Marlborough, MA, USA), and the resulting images were analyzed using Multi Gauge 3.2 phosphor imager software (Fujifilm, Tokyo, Japan) for ROI delimitation, density calibration, and quantification. Quantitative binding data from duplicates of the total, and NSB were plotted and analyzed using graphPad Prism v10 (GraphPad Software, Boston, MA, USA). Specific binding was determined by subtracting the non-specific signal from the total signal. The toluidine blue staining of adjacent sections was used to obtain anatomical references for white- and gray-matter ROI selection. Care was taken not to include artifact signals in the ROIs analyzed. These artifacts were identified as randomly placed punctate signals appearing in both total and NSB images, and they often coincided with small folds or tears in the tissue sections.

The target of a further test is Aβ. Conditions: AD; read-out: IC50 or KD Aβ; cited from earlier work.
In another test the target is pTau. The note with it: AD; read-out: IC50 or KD pTau; cited from earlier work.
Another test has as its target α-syn. The note with it: cited from earlier work.

tau fibrils, sequence (P10636 623-708 limits assumed): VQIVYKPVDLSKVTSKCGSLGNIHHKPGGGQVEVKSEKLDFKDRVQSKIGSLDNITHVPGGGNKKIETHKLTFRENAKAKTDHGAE
Aβ fibrils, sequence (P05067 672-711 limits assumed): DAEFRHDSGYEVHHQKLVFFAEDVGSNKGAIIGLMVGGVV

Take `COc1ccc(N2CCN(c3ccc(NC(=O)C(C)(C)C)cc3)CC2)cc1` [GMC-058]: the Ki on Aβ fibrils is 1490 nM; at tau fibrils it was 1320 nM; in test [1], 22.5 nM.

As for `COc1ccccc1CC(=O)Nc1ccc(N2CCN(c3ccc(C#N)cn3)CC2)cc1` [GMC023], the figures for the Ki (at Aβ fibrils; at tau fibrils; in test [1]) were 151 nM, 44 nM and 21.2 nM, respectively.

Regarding `COc1ccc(-c2ccc(NC(=O)N3CCN(c4ccccc4)CC3)cc2C#N)cc1` [GMC-098], the results for the Ki (on Aβ fibrils; at tau fibrils; in test [1]) were 226 nM, 805 nM and 9.7 nM, respectively.

For the compound `COc1ccc(-c2ccc(NC(=O)N3CCN(c4ccccn4)CC3)cc2C#N)cc1` [GMC015], the Ki at Aβ fibrils was 294 nM; on tau fibrils it was 761 nM; in test [1], 28.3 nM.

Regarding `[3H]c1ccc(N2CCN(C(=O)Nc3ccc(-c4ccc(OC)cc4)c(C#N)c3)CC2)cc1` [[^3H]GMC-098, N-(2-cyano-4′-methoxy-[1,1′-biphenyl]-4-yl)-4-([4-3H]phenyl)piperazine-1-carboxamide], in test [2] (10 nM radioligand), the NSB stood at 1878 ± 74.1 fmol/mg tissue equivalent, the “Total Minus NSB” value was 827 fmol/mg and the Total binding stood at 2705 ± 62.2 fmol/mg tissue equivalent. Further, in test [2] (20 nM radioligand), the NSB stood at 2336 ± 48.5 fmol/mg tissue equivalent, the “Total Minus NSB” value came out at 2810 fmol/mg and the Total binding worked out at 5146 ± 386.2 fmol/mg tissue equivalent. Moreover, in test [2], the “Binding displaced by GMC-044” value is on record as “approximately 50%” and the “Binding in control tissue” value was “clear binding”.

Turning to `C[C@@H](C(=O)Nc1ccc(N2CCN(c3ccc(C#N)cn3)CC2)cc1)c1ccccc1` [GMC044], the values for the Ki (on Aβ fibrils; on tau fibrils; in test [1]) were 3440 nM, 692 nM and 25.2 nM, respectively.

As to `[3H]c1cccc(NC(=O)Nc2ccc(N3CCN(c4ccc(F)cc4)CC3)c(C#N)c2)c1OC` [[^3H]GMC-073, 1-(3-cyano-4-(4-(4-fluorophenyl)piperazin-1-yl)phenyl)-3-(2-methoxy-[3-3H]-phenyl)urea], in test [2] (10 nM radioligand), the NSB was determined as 346.9 ± 14.5 fmol/mg tissue equivalent, the “Total Minus NSB” value is recorded as 318 fmol/mg and the Total binding amounted to 664.6 ± 24.3 fmol/mg tissue equivalent. In test [2] (20 nM radioligand), the NSB is 1022 ± 45 fmol/mg tissue equivalent, the “Total Minus NSB” value was 848 fmol/mg and the Total binding is 1870 ± 100.2 fmol/mg tissue equivalent. Besides, in test [2], the “Binding displaced by GMC-044” value is on record as “approximately 50%” and the “Binding in control tissue” value was “clear binding”.

Turning to `COc1ccccc1CC(=O)Nc1ccc(N2CCN(c3ccc(F)cc3)CC2)nc1` [GMC079], the Ki stood at 404 nM at Aβ fibrils, 2510 nM on tau fibrils and 23.9 nM in test [1].

For the compound `COc1ccccc1NC(=O)Nc1ccc(N2CCN(c3ccccn3)CC2)c(C#N)c1` [GMC071], the Ki amounted to 8180 nM at Aβ fibrils, 86 nM on tau fibrils and 14.2 nM in test [1].

On to `COc1ccc(CC(=O)Nc2ccc(N3CCN(c4ccc(C#N)cn4)CC3)cc2)cc1` [GMC025], for which the Ki on Aβ fibrils turned out to be 141 nM; at tau fibrils, 50 nM; in test [1], 29.7 nM.

Turning to `COc1ccc(-c2ccc(NC(=O)N3CCN(c4ccc(C#N)cn4)CC3)cc2C#N)cc1` [GMC095], the Ki at Aβ fibrils is 2630 nM; at tau fibrils it was 2510 nM; in test [1] it was 14.5 nM.

For the compound `COc1ccc(/C=C/c2ccc(N3CCN(c4ccc(C#N)cn4)CC3)cc2)cn1` [GMC013_FR-1], the Ki came out at 63 nM at Aβ fibrils, 151 nM at tau fibrils and 25.5 nM in test [1].

Take `O=C1c2cn(-c3ccc(N4CC[C@@H](F)C4)nc3)nc2CN1c1cccnc1` [[^18F]ACI-12589]: the Kd on Aβ was 317 nM; at pTau, 317 nM; at α-syn (MSA, read-out: IC50 or KD α-syn (converted)), 28 nM; at α-syn (PD and MSA tissue, read-out: KD) it was about 30 nM; at α-syn (sporadic PD, read-out: IC50 or KD α-syn (converted)), 33.5 ± 17.4 nM.

Turning to `O=C(Nc1ccc(N2CCN(Cc3ccc(Cl)c(Cl)c3)CC2)cc1)c1cnccn1` [GMC021], the Ki on Aβ fibrils was 889 nM; at tau fibrils, 2510 nM; in test [1], 22.2 nM.

Consider `CNc1cnc(C#C/C=C/c2nc3ccc(OCC(O)CF)cc3s2)cn1` (centres unmarked) [[^18F]SPAL-T-06], for which the IC50 in the test on α-syn (MSA, read-out: IC50 or KD α-syn) was 2.5 nM; with α-syn (brain homogenates from DLB or MSA cases, homologous competition binding studies, read-out: IC50), 2 to 3 nM.

Take `COc1ccccc1CC(=O)Nc1ccc(N2CCN(c3ccc(F)cc3)CC2)cc1C#N` [GMC086]: the Ki on Aβ fibrils stood at 809 nM; on tau fibrils, 26 nM; in test [1] it was 15.2 nM.

As for `COc1ccccc1NC(=O)Nc1ccc(N2CCN(c3ccc(F)cc3)CC2)c(C#N)c1` [GMC-073], the values for the inhibition constant Ki (on Aβ fibrils; at tau fibrils; in test [1]) were 2630 nM, 248 nM and 8 nM, respectively.

For the compound `COc1cccc(CC(=O)Nc2ccc(N3CCN(c4ccc(C#N)cn4)CC3)cc2)c1` [GMC024], the results for the inhibition constant Ki (on Aβ fibrils; at tau fibrils; in test [1]) were 81 nM, 68 nM and 25.3 nM, respectively.

As for `COc1ccc(-c2ccc(NC(=O)N3CCN(c4ccc(OC)cc4)CC3)cc2C#N)cc1` [GMC096], the Ki worked out at 51 nM at Aβ fibrils, 2510 nM at tau fibrils and 6.5 nM in test [1].

Take `COc1ccccc1NC(=O)Nc1ccc(N2CCN(c3ccccn3)CC2)cc1` [GMC070]: the Ki at Aβ fibrils was determined as 64 nM; at tau fibrils, 90 nM; in test [1], 6.8 nM.
